# Results taken from ChEMBL document CHEMBL3045096, “Pharmacophore modeling and 3D-QSAR (CoMSIA) studies for structural requirements of some triazine derivatives as G-quadruplex binders for telomerase inhibition” (Med Chem Res, 2013).
# Target: Telomerase reverse transcriptase (Homo sapiens, UniProt O14746)
# Assay: Inhibition of telomerase (unknown origin)
# Sequence of Telomerase reverse transcriptase (O14746 whole entry): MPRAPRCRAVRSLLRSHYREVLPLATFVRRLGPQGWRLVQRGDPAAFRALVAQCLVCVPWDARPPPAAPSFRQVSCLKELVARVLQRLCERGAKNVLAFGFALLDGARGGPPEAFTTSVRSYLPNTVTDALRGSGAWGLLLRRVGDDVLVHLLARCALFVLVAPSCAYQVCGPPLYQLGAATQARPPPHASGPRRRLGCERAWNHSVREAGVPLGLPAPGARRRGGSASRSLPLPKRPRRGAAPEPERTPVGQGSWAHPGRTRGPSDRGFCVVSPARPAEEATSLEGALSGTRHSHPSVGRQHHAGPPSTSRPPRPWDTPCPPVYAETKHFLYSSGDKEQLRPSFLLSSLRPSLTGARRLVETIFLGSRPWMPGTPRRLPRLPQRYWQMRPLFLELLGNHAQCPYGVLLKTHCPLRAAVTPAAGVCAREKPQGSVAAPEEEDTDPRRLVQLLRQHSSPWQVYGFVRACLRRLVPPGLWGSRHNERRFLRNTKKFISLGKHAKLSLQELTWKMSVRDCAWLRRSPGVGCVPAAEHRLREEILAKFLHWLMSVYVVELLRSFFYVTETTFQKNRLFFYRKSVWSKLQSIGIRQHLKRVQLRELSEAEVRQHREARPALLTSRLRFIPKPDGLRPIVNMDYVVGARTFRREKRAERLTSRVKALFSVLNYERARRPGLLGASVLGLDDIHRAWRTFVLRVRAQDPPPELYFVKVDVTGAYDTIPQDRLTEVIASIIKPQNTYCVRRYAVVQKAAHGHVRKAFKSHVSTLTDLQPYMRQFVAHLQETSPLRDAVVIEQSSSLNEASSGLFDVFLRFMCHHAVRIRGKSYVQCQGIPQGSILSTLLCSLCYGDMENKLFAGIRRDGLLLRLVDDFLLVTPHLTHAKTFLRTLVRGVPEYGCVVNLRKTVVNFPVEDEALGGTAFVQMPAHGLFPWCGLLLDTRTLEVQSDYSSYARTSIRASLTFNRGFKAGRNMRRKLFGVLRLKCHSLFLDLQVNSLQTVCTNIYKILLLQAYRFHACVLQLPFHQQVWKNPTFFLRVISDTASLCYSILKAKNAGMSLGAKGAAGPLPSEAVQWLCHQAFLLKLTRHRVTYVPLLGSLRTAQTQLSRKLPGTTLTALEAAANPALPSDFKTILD
row,Compound,IC50
1,CSc1nc(Nc2ccc3ncccc3c2)nc(Nc2ccc3nc(C)cc(N)c3c2)n1,2600 nM
2,CNc1nc(Nc2ccc3nc(C)cc(NC)c3c2)nc(Nc2ccc3nc(C)cc(NC)c3c2)n1,300 nM
3,CC[n+]1c(C)cc(N)c2cc(Nc3nc(N)nc(Nc4ccc5c(c4)c(N)cc(C)[n+]5CC)n3)ccc21,56 nM
4,COc1cc(C)nc2ccc(Nc3nc(Nc4ccc5nc(C)cc(N)c5c4)nc(SC)n3)cc12,2300 nM
5,Cc1cc(N)c2cc(Nc3nc(N)nc(Nc4ccc5c(c4)c(N)cc(C)[n+]5C)n3)ccc2[n+]1C,250 nM
6,COc1cc(C)nc2ccc(Nc3nc(Nc4ccc5nc(C)cc(OC)c5c4)nc(SC)n3)cc12,3900 nM
7,CSc1nc(Nc2ccc3nc(C)ccc3c2)nc(Nc2ccc3nc(C)cc(N)c3c2)n1,1000 nM
8,Cc1cc(N)c2cc(Nc3ccnc(Nc4ccc5nc(C)cc(N)c5c4)n3)ccc2n1,490 nM
9,CCN(CC)c1nc(Nc2ccc3ncccc3c2)nc(Nc2ccc3nc(C)cc(N)c3c2)n1,2500 nM
10,C[n+]1cccc2cc(Nc3nc(N)nc(Nc4ccc5c(ccc[n+]5C)c4)n3)ccc21,130 nM
11,CSc1nc(Nc2cccc(C(=N)N)c2)nc(Nc2ccc3nc(C)cc(N)c3c2)n1,3300 nM
12,CSc1nc(Nc2ccc3nc(C)cc(N)c3c2)nc(N(C)c2ccc3ncccc3c2)n1,3500 nM
13,CCc1cc(Nc2nc(Nc3ccc4nc(C)cc(N)c4c3)nc(SC)n2)ccn1,2200 nM
14,CSc1nc(Nc2ccc3nc(C)cc(N)c3c2)nc(Nc2ccc3nc(C)cc(N(C)C)c3c2)n1,340 nM
15,N=C(N)c1ccc(Nc2nc(N)nc(Nc3ccc(C(=N)N)cc3)n2)cc1,740 nM

# More lines, in order of falling IC50, values ahead:
row,IC50,Compound
1,3400 nM,CCN(CC)c1nc(Nc2ccncc2)nc(Nc2ccc3nc(C)cc(C)c3c2)n1
2,3400 nM,CSc1nc(Nc2ccc3nc(C)cc(C)c3c2)nc(Nc2ccnc3ccccc23)n1
3,3400 nM,CSc1nc(Nc2ccc3nc(C)cc(C)c3c2)nc(Nc2ccc3nc(C)cc(N)c3c2)n1
4,3400 nM,CSc1nc(Nc2ccc(C#N)cc2)nc(Nc2ccc3nc(C)cc(N)c3c2)n1
5,3300 nM,COc1ccc2nccc(Nc3nc(Nc4ccc5nc(C)cc(C)c5c4)nc(SC)n3)c2c1
6,3300 nM,CSc1nc(Nc2ccc3nc[nH]c3c2)nc(Nc2ccc3nc(C)cc(C)c3c2)n1
7,3000 nM,Cc1cc(N(C)C)c2cc(Nc3nc(Cl)nc(Nc4ccc5nc(C)cc(N(C)C)c5c4)n3)ccc2n1
8,2800 nM,CCn1c2ccccc2c2cc(Nc3nc(Nc4ccc5nc(C)cc(N)c5c4)nc(SC)n3)ccc21
9,2000 nM,Cc1cc(N)c2cc(NC(=N)NC(=N)Nc3ccc4nc(C)cc(N)c4c3)ccc2n1
10,950 nM,CSc1nc(Nc2ccc3c(c2)c(=N)cc(C)n3C)nc(Nc2ccc3c(c2)c(=N)cc(C)n3C)n1
11,890 nM,C[n+]1c2ccccc2c(N)c2cc(Nc3nc(N)nc(Nc4ccc5c(c4)c(N)c4ccccc4[n+]5C)n3)ccc21
12,510 nM,CNc1nc(Nc2ccc3nc(C)cc(N)c3c2)nc(Nc2ccc3nc(C)cc(N)c3c2)n1
13,220 nM,Cc1cc(N)c2cc(Nc3nc(Nc4ccc5c(c4)c(N)cc(C)[n+]5C)nc(N(C)C)n3)ccc2[n+]1C
14,51 nM,Cc1cc(N)c2cc(Nc3nc(N)nc(Nc4ccc5nc(C)cc(N)c5c4)n3)ccc2n1
15,49 nM,CSc1nc(Nc2ccc3nc(C)cc(N)c3c2)nc(Nc2ccc3nc(C)cc(N)c3c2)n1
16,41 nM,CSc1nc(Nc2ccc3nc(C)cc(N(C)C)c3c2)nc(Nc2ccc3nc(C)cc(N(C)C)c3c2)n1
